Consider two compounds from patent publication US5922715A, “5-aminoalkoxy-1, 4-dihydroquinoxaline-2, 3-diones” (American Home Products Corporation, priority 1998, dated 1999).

Assay [1] deals with T1, dopamine D2 (dopamine autoreceptor) (Rattus norvegicus, UniProt P61169).
T1 construct: homogenized rat striatal brain tissue; from tissue; host or cells: rat striatal brain tissue, homogenized
The assay can be described thus: Affinity for the dopamine autoreceptor: 3H-quinpirole (Quin.) binding, homogenized rat striatal brain tissue. On the procedure:
Affinity for the dopamine autoreceptor was established by a modification of the standard experimental test procedure of Seamen and Schaus, European Journal of Pharmacology 203, 105-109, 1991, wherein homogenized rat striatal brain tissue is incubated with ^3 H-quinpirole (Quin.) and various concentrations of test compound, filtered and washed and counted in a Betaplate scintillation counter.

The next assay has as its target T2, dopamine D-2 receptor (Rattus norvegicus, UniProt P61169).
T2 construct: homogenized limbic brain tissue; from tissue; host or cells: limbic brain tissue, homogenized
The assay can be described thus: High affinity for the dopamine D-2 receptor: 3H-spiroperidol (Spiper.) binding, homogenized limbic brain tissue. The conditions noted are these: read-out: IC50 (nM) D2 Spiper. On the procedure:
High affinity for the dopamine D-2 receptor was established by the standard experimental test procedure of Fields, et al., Brain Res., 136, 578 (1977) and Yamamura et al., eds., Neurotranrutter Receptor Binding, Raven Press, N.Y. (1978) wherein homogenized limbic brain tissue is incubated with ^3 H-spiroperidol (Spiper.) and various concentrations of test compound, filtered and washed and shaken with Hydrofluor scintillation cocktail (National Diagnostics) and counted in a Packard 460 CD scintillation counter.

T1 sequence (P61169 whole entry): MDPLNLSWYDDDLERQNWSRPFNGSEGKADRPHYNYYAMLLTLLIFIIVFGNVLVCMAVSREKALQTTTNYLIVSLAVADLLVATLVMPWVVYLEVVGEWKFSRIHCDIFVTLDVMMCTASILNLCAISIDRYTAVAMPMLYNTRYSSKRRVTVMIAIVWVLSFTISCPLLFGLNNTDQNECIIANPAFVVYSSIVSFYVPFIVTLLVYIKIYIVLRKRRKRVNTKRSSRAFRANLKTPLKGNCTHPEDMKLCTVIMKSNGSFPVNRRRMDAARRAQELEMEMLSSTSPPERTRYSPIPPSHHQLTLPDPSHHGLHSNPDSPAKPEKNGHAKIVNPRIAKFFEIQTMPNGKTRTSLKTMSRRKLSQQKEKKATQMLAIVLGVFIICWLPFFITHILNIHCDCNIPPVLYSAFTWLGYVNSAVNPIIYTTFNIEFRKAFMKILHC
T2 sequence (P61169 whole entry): as above

As to `O=c1[nH]c2cccc(OCCNCc3ccccc3)c2[nH]c1=O` [Example 1, 5-(2-Benzylamino-ethoxy)-1,4-dihydro-quinoxaline-2,3-dione], the values for the IC50 (in assay [1]; on dopamine D-2 receptor) were 20.8 nM and 2190 nM, respectively.
`O=c1[nH]c2cccc(OCCNCc3ccc(Cl)cc3)c2[nH]c1=O` [Example 2, 5-[2-(4-Chloro-benzylamino)-ethoxy]-1,4-dihydro-quinoxaline-2,3-dione] returned an IC50 in assay [1] of 64.6 nM.
